Data on 17 compounds can be found in ChEMBL document CHEMBL1909046, “DrugMatrix in vitro pharmacology data”.

One data set addresses T1, Cytochrome P450 2A6 (Homo sapiens, UniProt P11509).
T1 sequence (P11509 whole entry): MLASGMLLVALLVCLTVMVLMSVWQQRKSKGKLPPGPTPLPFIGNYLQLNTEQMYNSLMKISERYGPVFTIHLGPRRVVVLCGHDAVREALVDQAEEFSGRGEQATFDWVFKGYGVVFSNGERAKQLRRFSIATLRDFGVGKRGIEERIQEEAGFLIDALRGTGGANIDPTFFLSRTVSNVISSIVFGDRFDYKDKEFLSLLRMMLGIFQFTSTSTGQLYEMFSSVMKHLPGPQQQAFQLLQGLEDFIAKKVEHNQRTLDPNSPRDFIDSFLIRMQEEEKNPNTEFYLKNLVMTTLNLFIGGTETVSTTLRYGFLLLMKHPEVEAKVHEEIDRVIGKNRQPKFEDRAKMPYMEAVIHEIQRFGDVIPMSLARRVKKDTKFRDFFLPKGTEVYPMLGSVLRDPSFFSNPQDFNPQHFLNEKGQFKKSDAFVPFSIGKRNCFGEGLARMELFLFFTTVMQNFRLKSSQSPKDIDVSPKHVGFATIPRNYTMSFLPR
Particulars: bti-tn-5b1-4.

Data set [1] concerns the target T2, Alpha-2A adrenergic receptor (Homo sapiens, UniProt P08913). Note: in other assays of this panel Not Active means under 50% inhibition at 10 µM.
T2 sequence (P08913 whole entry): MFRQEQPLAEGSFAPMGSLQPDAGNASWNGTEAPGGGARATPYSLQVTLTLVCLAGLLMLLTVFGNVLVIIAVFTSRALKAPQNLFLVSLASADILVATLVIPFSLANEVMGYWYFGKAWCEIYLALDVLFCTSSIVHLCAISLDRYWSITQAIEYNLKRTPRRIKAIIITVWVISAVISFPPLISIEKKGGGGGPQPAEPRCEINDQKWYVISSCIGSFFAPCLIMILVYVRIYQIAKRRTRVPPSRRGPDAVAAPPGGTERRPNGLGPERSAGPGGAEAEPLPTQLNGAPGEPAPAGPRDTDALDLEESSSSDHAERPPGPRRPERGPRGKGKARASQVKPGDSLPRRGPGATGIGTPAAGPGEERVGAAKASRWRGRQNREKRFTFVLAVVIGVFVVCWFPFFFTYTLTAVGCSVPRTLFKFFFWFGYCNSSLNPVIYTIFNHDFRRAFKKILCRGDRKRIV
In kind it is cell membranes, Sf9, Membrane. As to conditions: for Ki: read-out: Ki.

For data set [2], the target named is T3, 5-hydroxytryptamine receptor 2C (Homo sapiens, UniProt P28335).
T3 sequence (P28335 whole entry): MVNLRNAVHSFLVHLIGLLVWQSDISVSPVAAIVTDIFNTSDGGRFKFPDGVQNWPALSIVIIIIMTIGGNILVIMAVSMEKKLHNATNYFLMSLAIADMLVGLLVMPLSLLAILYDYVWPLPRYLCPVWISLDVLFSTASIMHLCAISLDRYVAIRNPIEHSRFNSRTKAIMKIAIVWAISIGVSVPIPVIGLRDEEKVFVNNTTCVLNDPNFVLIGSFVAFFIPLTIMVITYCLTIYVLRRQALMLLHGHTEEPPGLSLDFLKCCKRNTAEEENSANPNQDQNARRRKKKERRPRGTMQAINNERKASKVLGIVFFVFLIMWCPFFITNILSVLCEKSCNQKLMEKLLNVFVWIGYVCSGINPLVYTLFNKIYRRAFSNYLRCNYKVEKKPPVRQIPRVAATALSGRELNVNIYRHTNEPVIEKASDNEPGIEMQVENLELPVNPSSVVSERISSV
Kind of data set: DRUGMATRIX: Serotonin (5-Hydroxytryptamine) 5-HT2C radioligand binding (ligand: [3H] Mesulergine). Particulars: Not Active = under 50% inhibition at 10 µM. In kind it is cell membranes, CHO-K1, Membrane.

The target in data set [3] is T4, Alpha-1B adrenergic receptor (Rattus norvegicus, UniProt P15823).
T4 sequence (P15823 whole entry): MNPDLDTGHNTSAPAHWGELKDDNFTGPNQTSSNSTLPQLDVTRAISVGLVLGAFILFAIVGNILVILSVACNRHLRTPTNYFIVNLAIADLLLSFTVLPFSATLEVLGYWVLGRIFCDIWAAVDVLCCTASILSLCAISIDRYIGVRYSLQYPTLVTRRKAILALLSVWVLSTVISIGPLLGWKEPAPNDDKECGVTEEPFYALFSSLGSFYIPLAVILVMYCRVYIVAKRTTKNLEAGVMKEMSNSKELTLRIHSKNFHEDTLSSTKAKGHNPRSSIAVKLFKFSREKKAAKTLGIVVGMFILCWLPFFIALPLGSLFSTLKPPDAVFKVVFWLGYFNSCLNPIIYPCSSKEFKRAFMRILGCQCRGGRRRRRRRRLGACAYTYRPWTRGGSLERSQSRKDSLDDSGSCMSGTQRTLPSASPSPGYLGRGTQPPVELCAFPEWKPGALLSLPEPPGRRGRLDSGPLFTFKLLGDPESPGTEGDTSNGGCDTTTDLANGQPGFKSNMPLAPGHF
Kind of data set: DRUGMATRIX: Alpha-1B adrenergic receptor radioligand binding (ligand: prazosin). In kind it is cell membranes, Wistar, Liver, Membrane. As to conditions: Not Active = under 50% inhibition at 10 µM.

The target in a further data set is Mu-type opioid receptor (Homo sapiens, UniProt P35372). Kind of data set: DRUGMATRIX: Opiate mu (OP3, MOP) radioligand binding (ligand: [3H] Diprenorphine). The data set is classed as cell membranes, CHO-K1, Membrane. As to conditions: Not Active = under 50% inhibition at 10 µM.
Sequence of Mu-type opioid receptor (P35372 whole entry): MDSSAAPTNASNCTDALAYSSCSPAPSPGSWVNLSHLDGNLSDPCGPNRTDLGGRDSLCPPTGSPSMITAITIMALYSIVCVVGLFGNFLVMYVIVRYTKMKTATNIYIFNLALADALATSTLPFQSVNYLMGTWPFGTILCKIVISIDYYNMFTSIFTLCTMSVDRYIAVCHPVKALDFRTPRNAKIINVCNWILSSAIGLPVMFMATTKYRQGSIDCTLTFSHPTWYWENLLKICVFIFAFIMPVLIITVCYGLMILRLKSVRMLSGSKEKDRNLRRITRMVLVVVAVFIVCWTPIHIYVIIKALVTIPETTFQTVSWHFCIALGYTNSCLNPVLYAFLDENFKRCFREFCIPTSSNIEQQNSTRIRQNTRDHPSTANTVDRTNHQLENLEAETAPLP
The target in data set [4] is Voltage-gated inwardly rectifying potassium channel KCNH2 (Homo sapiens, UniProt Q12809). Particulars: hek293. Note: in other assays of this panel Not Active means under 50% inhibition at 10 µM.
Sequence of Voltage-gated inwardly rectifying potassium channel KCNH2 (Q12809 whole entry): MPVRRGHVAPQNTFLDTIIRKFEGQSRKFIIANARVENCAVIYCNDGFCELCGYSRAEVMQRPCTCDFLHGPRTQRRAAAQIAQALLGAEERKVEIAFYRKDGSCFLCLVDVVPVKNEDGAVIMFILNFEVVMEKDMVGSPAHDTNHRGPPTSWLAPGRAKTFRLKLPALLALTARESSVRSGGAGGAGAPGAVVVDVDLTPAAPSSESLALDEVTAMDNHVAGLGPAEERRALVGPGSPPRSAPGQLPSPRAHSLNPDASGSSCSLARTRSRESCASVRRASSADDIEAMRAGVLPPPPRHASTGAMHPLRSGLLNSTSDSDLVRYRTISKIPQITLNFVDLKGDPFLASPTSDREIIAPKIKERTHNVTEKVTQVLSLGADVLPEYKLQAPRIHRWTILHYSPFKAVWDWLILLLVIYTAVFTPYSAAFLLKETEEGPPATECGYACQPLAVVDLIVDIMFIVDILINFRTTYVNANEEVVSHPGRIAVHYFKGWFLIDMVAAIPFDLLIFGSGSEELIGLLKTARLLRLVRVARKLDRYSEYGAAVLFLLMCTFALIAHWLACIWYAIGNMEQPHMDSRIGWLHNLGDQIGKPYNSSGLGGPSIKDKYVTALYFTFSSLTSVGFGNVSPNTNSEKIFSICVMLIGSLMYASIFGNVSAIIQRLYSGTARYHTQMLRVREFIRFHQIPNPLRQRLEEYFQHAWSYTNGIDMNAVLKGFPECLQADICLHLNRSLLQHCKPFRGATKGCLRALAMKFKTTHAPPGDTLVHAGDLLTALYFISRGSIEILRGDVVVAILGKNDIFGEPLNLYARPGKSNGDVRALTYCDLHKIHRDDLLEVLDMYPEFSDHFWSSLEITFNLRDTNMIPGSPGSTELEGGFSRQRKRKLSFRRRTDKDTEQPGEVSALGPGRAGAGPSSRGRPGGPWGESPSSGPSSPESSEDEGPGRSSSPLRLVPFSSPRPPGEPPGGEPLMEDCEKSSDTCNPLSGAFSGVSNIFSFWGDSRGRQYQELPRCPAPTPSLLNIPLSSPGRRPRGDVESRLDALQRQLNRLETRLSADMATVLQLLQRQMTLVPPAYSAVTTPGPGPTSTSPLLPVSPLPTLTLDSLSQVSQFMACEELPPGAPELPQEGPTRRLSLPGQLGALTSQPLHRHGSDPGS

What is called IC50 is the concentration that gives 50% inhibition. For orientation: Ki means a dissociation constant, usually derived from enzyme kinetics or from competition with a known ligand. For `C#C[C@]1(O)CC[C@H]2[C@@H]3[C@H](C)CC4=C(CCC(=O)C4)[C@H]3CC[C@@]21C` [TIBOLONE], the IC50 entry (against Cytochrome P450 2A6; in data set [1] (sf9); in data set [2] (cho-k1); in data set [3]; on Mu-type opioid receptor (cho-k1); in data set [4]) was “Not Active” in each case. The Ki entry (at Cytochrome P450 2A6; in data set [4]) was “Not Active” in each case.
Turning to `C[C@]12CCC(=O)C[C@@H]1CC[C@@H]1[C@@H]2CC[C@]2(C)[C@@H](O)CC[C@@H]12` [STANOLONE], the IC50 result (at Cytochrome P450 2A6; in data set [1] (sf9); in data set [2] (cho-k1); in data set [3]; on Mu-type opioid receptor (cho-k1); in data set [4]) was “Not Active” in each case. Also, the Ki entry (on Cytochrome P450 2A6; in data set [4]) was “Not Active” throughout.
As for `CC(C)(C)NC[C@H](O)COc1cccc2c1CCCC2=O` [LEVOBUNOLOL], the IC50 entry (at Cytochrome P450 2A6; in data set [1] (sf9); in data set [2] (cho-k1); in data set [3]; at Mu-type opioid receptor (cho-k1); in data set [4]) was “Not Active” in each case. Besides, the Ki result (at Cytochrome P450 2A6; in data set [4]) was “Not Active” in each case.
`CCN1CCCC1CNC(=O)c1cc(S(N)(=O)=O)ccc1OC` (stereo unspecified) [SULPIRIDE]: the IC50 entry against Cytochrome P450 2A6 is “Not Active”; in data set [1] (read-out: IC50), 2.02 µM; in data set [2] (cho-k1), “Not Active”; in data set [3] it was “Not Active”; at Mu-type opioid receptor (cho-k1), “Not Active”; in data set [4], “Not Active”. In addition, the figures for the Ki entry (at Cytochrome P450 2A6; in data set [1]; in data set [4]) were “Not Active”, 0.757 µM and “Not Active”, respectively.
Consider `CCN(CC)C(=S)SSC(=S)N(CC)CC`, for which the IC50 result against Cytochrome P450 2A6 is “Not Active”; in data set [2] (cho-k1), “Not Active”; in data set [3], “Not Active”; at Mu-type opioid receptor (read-out: IC50), 3.51 µM; in data set [4], “Not Active”. Also, the Ki entry on Cytochrome P450 2A6 was “Not Active”; at Mu-type opioid receptor, 1.42 µM; in data set [4] it was “Not Active”.
As to `OC[C@@H](O)[C@@H](O)[C@H](O)[C@H](O)CO` [MANNITOL], the IC50 entry (on Cytochrome P450 2A6; in data set [1] (sf9); in data set [2] (cho-k1); in data set [3]; at Mu-type opioid receptor (cho-k1); in data set [4]) was “Not Active” throughout. The inhibition constant (Ki) result (on Cytochrome P450 2A6; in data set [4]) was “Not Active” in each case.
As to `C[N+]1(C)[C@@H]2C[C@@H](OC(=O)[C@H](CO)c3ccccc3)C[C@H]1[C@@H]1O[C@@H]12.[Br-]` [METHSCOPOLAMINE BROMIDE], the IC50 entry (against Cytochrome P450 2A6; in data set [1] (sf9); in data set [2] (cho-k1); in data set [3]; on Mu-type opioid receptor (cho-k1); in data set [4]) was “Not Active” throughout. Further, the Ki entry (at Cytochrome P450 2A6; in data set [4]) was “Not Active” each time.
On to `CCN(CC)CCNC(=O)c1cc(Cl)c(N)cc1OC` [METOCLOPRAMIDE], for which the IC50 result on Cytochrome P450 2A6 was “Not Active”; in data set [1] (read-out: IC50), 2.72 µM; in data set [2] (read-out: IC50), 2.38 µM; in data set [3], “Not Active”; at Mu-type opioid receptor (cho-k1), “Not Active”; in data set [4], “Not Active”. For the same compound, the Ki result is “Not Active” at Cytochrome P450 2A6, 1.02 µM in data set [1], 1.25 µM in data set [2] (read-out: Ki) and “Not Active” in data set [4].
For `CC(=O)O[C@]1(C(C)=O)CC[C@H]2[C@@H]3C[C@H](C)C4=CC(=O)CC[C@]4(C)[C@H]3CC[C@@]21C` [MEDROXYPROGESTERONE ACETATE], the IC50 entry (at Cytochrome P450 2A6; in data set [1] (sf9); in data set [2] (cho-k1); in data set [3]; on Mu-type opioid receptor (cho-k1); in data set [4]) was “Not Active” throughout. Moreover, the Ki result (at Cytochrome P450 2A6; in data set [4]) was “Not Active” in each case.
On to `Cc1ccnc(NS(=O)(=O)c2ccc(N)cc2)n1` [SULFAMERAZINE], for which the IC50 entry (against Cytochrome P450 2A6; in data set [1] (sf9); in data set [2] (cho-k1); in data set [3]; on Mu-type opioid receptor (cho-k1); in data set [4]) was “Not Active” in each case. In addition, the Ki entry (at Cytochrome P450 2A6; in data set [4]) was “Not Active” in each case.
For the compound `O=C(c1ccccc1)c1ccc2n1CCC2C(=O)O` (stereo unspecified) [KETOROLAC], the IC50 result (on Cytochrome P450 2A6; in data set [1] (sf9); in data set [2] (cho-k1); in data set [3]; on Mu-type opioid receptor (cho-k1); in data set [4]) was “Not Active” each time. Further, the Ki entry (on Cytochrome P450 2A6; in data set [4]) was “Not Active” each time.
Turning to `CCC(C)(C)C(=O)O[C@H]1C[C@@H](C)C=C2C=C[C@H](C)[C@H](CC[C@@H]3C[C@@H](O)CC(=O)O3)[C@H]21` [SIMVASTATIN], the IC50 result (in data set [1] (sf9); in data set [2] (cho-k1); in data set [3]; on Mu-type opioid receptor (cho-k1)) was “Not Active” in each case.
For `CC[C@H](C)C(=O)O[C@H]1CCC=C2C=C[C@H](C)[C@H](CC[C@@H]3C[C@@H](O)CC(=O)O3)[C@H]21` [MEVASTATIN], the IC50 result (at Cytochrome P450 2A6; in data set [1] (sf9); in data set [2] (cho-k1); in data set [3]; on Mu-type opioid receptor (cho-k1)) was “Not Active” throughout. Moreover, the Ki result at Cytochrome P450 2A6 is recorded as “Not Active”.
For `Cc1[nH]c(=O)c(C#N)cc1-c1ccncc1` [MILRINONE], the IC50 result (at Cytochrome P450 2A6; in data set [1] (sf9); in data set [2] (cho-k1); in data set [3]; on Mu-type opioid receptor (cho-k1)) was “Not Active” each time. Also, the Ki entry on Cytochrome P450 2A6 is reported as “Not Active”.
Take `Cc1ccc(S(=O)(=O)NC(=O)NN2CCCCCC2)cc1` [TOLAZAMIDE]: the IC50 result (in data set [1] (sf9); in data set [2] (cho-k1); in data set [3]; at Mu-type opioid receptor (cho-k1); in data set [4]) was “Not Active” in each case. For the same compound, the Ki entry in data set [4] is given as “Not Active”.
On to `CC1=C(/C=C/C(C)=C/C=C/C(C)=C/C(=O)O)C(C)(C)CCC1` [TRETINOIN], for which the IC50 entry (against Cytochrome P450 2A6; in data set [1] (sf9); in data set [2] (cho-k1); in data set [3]; on Mu-type opioid receptor (cho-k1)) was “Not Active” in each case. Also, the Ki entry at Cytochrome P450 2A6 is given as “Not Active”.
Take `CN1C[C@H](CNC(=O)OCc2ccccc2)C[C@@H]2c3cccc4c3c(cn4C)C[C@H]21` [METERGOLINE]: the IC50 entry at Cytochrome P450 2A6 was “Not Active”; in data set [3] (read-out: IC50), 0.262 µM; on Mu-type opioid receptor (cho-k1) it was “Not Active”; in data set [4], “Not Active”. The Ki result on Cytochrome P450 2A6 is “Not Active”; in data set [3] (read-out: Ki), 0.145 µM; in data set [4], “Not Active”.
